Data taken from patent publication US20250228835A1, “PYRIDINYLOXYPYRIDINES AND RELATED COMPOUNDS AND THEIR USE IN TREATING MEDICAL CONDITIONS” (Rectify Pharmaceuticals, Inc., priority 2024, published 2025).
pEC50: −log10 of the molar value.

target: T1, ABCD2 WT (Homo sapiens, UniProt Q9UBJ2); assay: D2 correction dose-response assay: ABCD2 WT HiBit protein expression; type: cell-based; conditions: HEK-293/ABCD2 WT cells, 24 hours treatment, HiBit luminescence; class combines EC50 and Mean MaxAct (fold); read-out: ABCD2 WT EC50, Emax
T1 construct: expressed in transfected cells
T1 sequence (Q9UBJ2 1-740): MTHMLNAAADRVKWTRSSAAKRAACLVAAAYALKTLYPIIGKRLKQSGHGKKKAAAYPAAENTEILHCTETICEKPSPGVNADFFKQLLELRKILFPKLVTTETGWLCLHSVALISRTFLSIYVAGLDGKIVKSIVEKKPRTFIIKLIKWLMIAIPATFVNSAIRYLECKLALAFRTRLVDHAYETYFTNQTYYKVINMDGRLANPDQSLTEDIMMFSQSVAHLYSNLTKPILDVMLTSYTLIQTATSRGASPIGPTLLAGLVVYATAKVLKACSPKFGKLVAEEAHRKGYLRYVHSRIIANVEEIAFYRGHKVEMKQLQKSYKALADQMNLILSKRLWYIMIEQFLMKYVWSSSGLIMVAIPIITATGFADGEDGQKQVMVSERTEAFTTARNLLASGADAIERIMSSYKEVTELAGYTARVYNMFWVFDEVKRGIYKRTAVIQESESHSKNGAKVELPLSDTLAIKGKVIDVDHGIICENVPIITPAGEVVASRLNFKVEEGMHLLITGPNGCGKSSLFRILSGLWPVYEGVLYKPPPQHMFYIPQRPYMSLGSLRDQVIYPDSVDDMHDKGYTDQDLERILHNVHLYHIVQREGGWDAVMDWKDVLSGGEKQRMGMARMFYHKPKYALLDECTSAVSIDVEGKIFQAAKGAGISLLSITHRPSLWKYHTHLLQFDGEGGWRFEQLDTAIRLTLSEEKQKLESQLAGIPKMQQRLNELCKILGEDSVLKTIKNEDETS
Protocol: Exemplary compounds were evaluated in a D2 correction dose-response assay.
To assess activity against ABCD2, the compounds were screened in an assay measuring protein expression, using cells transfected with cDNA encoding HiBit-tagged ABCD2 wild-type. Here we describe an assay for measuring the expression of the wild type of human ABCD2 (henceforth referred to as ABCD2 WT) and the use of this assay to measure the efficacy of compounds to increase the expression of ABCD2 WT. The assay was designed to characterize the efficacy and potency of compounds to increase the expression of ABCD2 WT by calculating an Emax and EC50 value. HEK-293 cells stably expressing ABCD2 WT (HEK-293/ABCD2 WT) were used for this assay and were maintained at 37° C. (5% CO2, humidified) in Dulbecco's Modified Eagle Medium (DMEM, Gibco product #12100) supplemented with 10% fetal bovine serum (Biosera product #FB-1058/500), 1% PenStrep (HDB product #15140-122), and 0.5 mg/mL puromycin (Gibco product #A11138-03). For the assay, the HEK-293/ABCD2 WT cells were seeded in white/opaque 384-well plates (Corning product #3570) at 10,000 cells/well in 20 μl growth medium and allowed to settle for 4 hours at 37° C. (5% CO2, humidified). Compound serial dilutions are prepared in DMSO as three hundred times (333×) the final concentration and using a dilution factor of 3 using Bravo (Agilent). After the four-hour incubation period, 60 nL of DMSO solutions are transferred to the assay plate.
Dose response curves include eleven doses with the top final concentration at 30 μM in 0.3% DMSO. Liquid handling is performed with ECHO 550 Acoustic Liquid Handler (Labcyte). After addition of compound treatment, cells are incubated for 24 hours at 37° C. (5% CO2, humidified). After the 24-hour treatment, plates are allowed to equilibrate to room temperature for 10 minutes. Using Dragonfly Automated Liquid Handler (TTP LabTech), 20 μl of HiBit lytic assay reagent (Promega, product #N3040), which is prepared according to manufacturer's instructions, is added to each well. The plates are rotated at room temperature for 2 minutes and incubated for 1 hour at 25° C. before luminescent signal is acquired using an EnVision Multimode Plate Reader (PerkinElmer).

SMILES	pEC50
Cc1cc(C)c(Oc2nc(-c3ccc(C#N)nc3C)ccc2NS(C)(=O)=O)c(C)c1 [Compound I-6]	> 6.00
Cc1cc(C)c(Oc2nc(-c3ccc(C#N)nc3)ccc2NS(C)(=O)=O)c(C)n1 [Compound I-7]	> 6.00
Cc1cc(C)c(Oc2nc(-c3cnc(C#N)c(Cl)c3)ccc2NS(C)(=O)=O)c(C)n1 [Compound I-8]	> 6.00
Cc1cc(C)c(Oc2nc(-c3cncc(Cl)c3)ncc2NS(C)(=O)=O)c(C)c1 [Compound I-9]	> 6.00
Cc1cc(C)c(Oc2nc(-c3cncc(C#N)c3)ncc2NS(C)(=O)=O)c(C)c1 [Compound I-10]	> 6.00
CNS(=O)(=O)c1ccc(-c2cncc(Cl)c2)nc1Oc1c(C)cc(C)cc1C [Compound I-95]	> 6.00
Cc1cc(C)c(Oc2nc(-c3cncc(Cl)c3)ccc2S(=O)(=O)N2CCCC2)c(C)c1 [Compound I-96]	5.00 to 6.00
Cc1cc(C)c(Oc2nc(-c3cncc(Cl)c3)ccc2S(=O)(=O)N(C)C)c(C)c1 [Compound I-97]	5.00 to 6.00
Cc1cc(C)c(Oc2nc(-c3cncc(Cl)c3)ccc2S(=O)(=O)NC2CC2)c(C)c1 [Compound I-98]	> 6.00
Cc1cc(C)c(Oc2nc(-c3cncc(Cl)c3)ccc2S(=O)(=O)NC(C)(C)C)c(C)c1 [Compound I-99]	< 4.60
Cc1cc(C)c(Oc2nc(-c3cncc(Cl)c3)ccc2S(N)(=O)=O)c(C)c1 [Compound I-100]	> 6.00
Cc1cc(C)c(Oc2nc(-c3cccc(Cl)c3)ccc2S(=O)(=O)NC2CCOC2)c(C)c1 (centres unmarked) [Compound I-101]	5.00 to 6.00
Cc1cc(C)c(Oc2nc(-c3cccc(Cl)c3)ccc2S(N)(=O)=O)c(C)c1 [Compound I-102]	< 4.60
Cc1cc(C)c(Oc2nc(-c3cncc(Cl)c3)ccc2S(C)(=N)=O)c(C)c1 (centres unmarked) [Compound I-103]	5.00 to 6.00
Cc1cc(C)c(Oc2nc(-c3cncc(Cl)c3)ccc2S(C)(=O)=O)c(C)c1 [Compound I-104]	< 4.60
Cc1cc(C(F)(F)F)nc(C2CC2)c1Oc1nc(-c2cncc(C#N)c2)ccc1S(=O)(=O)NC1CC1 [Compound I-133]	> 6.00
Cc1cc(C)c(Oc2nc(-c3cncc(C#N)c3)ccc2N(C)S(=O)(=O)c2cccnc2)c(C2CC2)n1 [Compound I-136]	5.00 to 6.00
Cc1cc(C(F)(F)F)nc(C2CC2)c1Oc1nc(-c2cncc(C#N)c2)ccc1N(C)S(=O)(=O)C1CC1 [Compound I-139]	5.00 to 6.00
CCS(=O)(=O)N(C)c1ccc(-c2cncc(C#N)c2)nc1Oc1c(C)cc(C(F)(F)F)nc1C1CC1 [Compound I-148]	> 6.00
Cc1nc(C(F)(F)F)nc(C2CC2)c1Oc1nc(-c2cncc(Cl)c2)ccc1N(C)S(C)(=O)=O [Compound I-149]	< 4.60
Cc1cc(C(F)(F)F)nc(C2CC2)c1Oc1nc(-c2cncc(Cl)c2)ccc1N(C)S(C)(=O)=O [Compound I-153]	5.00 to 6.00
Cc1nc(C(F)(F)F)cc(C2CC2)c1Oc1nc(-c2cncc(C#N)c2)ccc1N(C)S(C)(=O)=O [Compound I-154]	< 4.60
Cc1cc(C(F)(F)F)nc(C2CC2)c1Oc1nc(-c2cncc(C#N)c2)ccc1N(C)S(C)(=O)=O [Compound I-156]	> 6.00
Cc1cc(C(F)(F)F)nc(C2CC2)c1Oc1nc(-c2cncc(C#N)c2)ccc1N=S(C)(C)=O [Compound I-286]	> 6.00
Cc1cc(C(F)(F)F)nc(C2CC2)c1Oc1nc(-c2cncc(C#N)c2)ccc1S(=N)(=O)C1CC1 (centres unmarked) [Compound I-287]	< 4.60

More lines, now with the values ahead:

pEC50	SMILES
> 6.00	Cc1cc(C2CC2)nc(C)c1Oc1nc(-c2cncc(C#N)c2)ccc1NS(C)(=O)=O [Compound I-4]
> 6.00	Cc1cc(C)c(Oc2nc(-c3cncc(C#N)c3)ccc2NS(C)(=O)=O)c(C)n1 [Compound I-5]
5.00 to 6.00	Cc1cc(C(F)F)nc(C2CC2)c1Oc1nc(-c2cncc(C#N)c2)ccc1N(C)S(=O)(=O)C1CC1 [Compound I-134]
5.00 to 6.00	Cc1cc(C(F)F)nc(C2CC2)c1Oc1nc(-c2cncc(C#N)c2)ccc1N(C)S(C)(=O)=O [Compound I-135]
> 6.00	Cc1cc(C(F)F)nc(C2CC2)c1Oc1nc(-c2cncc(C#N)c2)ccc1NS(C)(=O)=O [Compound I-137]
> 6.00	CS(=O)(=O)Nc1ccc(-c2cncc(C#N)c2)nc1Oc1c(C2CC2)nc(C(F)(F)F)nc1C1CC1 [Compound I-138]
> 6.00	Cc1cc(C(F)(F)F)nc(C2CC2)c1Oc1nc(-c2cncc(C#N)c2)ccc1NS(=O)(=O)C1CC1 [Compound I-140]
> 6.00	Cc1cc(C(F)(F)F)nc(C2CC2)c1Oc1nc(-c2cncc(C#N)c2)ccc1NS(=O)(=O)C(C)C [Compound I-141]
5.00 to 6.00	Cc1nc(C(F)(F)F)nc(C2CC2)c1Oc1nc(-c2cncc(C#N)c2)ccc1N(C)S(C)(=O)=O [Compound I-142]
> 6.00	Cc1nc(C2COC2)nc(C2CC2)c1Oc1nc(-c2cncc(C#N)c2)ccc1NS(C)(=O)=O [Compound I-143]
< 4.60	Cc1nc(C(F)F)nc(C2CC2)c1Oc1nc(-c2cncc(C#N)c2)ccc1NS(C)(=O)=O [Compound I-144]
> 6.00	Cc1nc(C(F)(F)F)nc(C2CC2)c1Oc1nc(-c2cncc(C#N)c2)ccc1NS(C)(=O)=O [Compound I-145]
4.60 to 5.00	Cc1cc(C2CC2)nc(C2CC2)c1Oc1nc(-c2cncc(C#N)c2)ccc1N(C)S(C)(=O)=O [Compound I-146]
> 6.00	Cc1cc(C)c(Oc2nc(-c3cncc(C#N)c3)ccc2NS(=O)(=O)c2cccnc2)c(C2CC2)n1 [Compound I-147]
> 6.00	Cc1nc(C2CC2)nc(C2CC2)c1Oc1nc(-c2cncc(C#N)c2)ccc1NS(C)(=O)=O [Compound I-150]
> 6.00	Cc1nc(C(F)(F)F)nc(C2CC2)c1Oc1nc(-c2cncc(Cl)c2)ccc1NS(C)(=O)=O [Compound I-151]
> 6.00	CCS(=O)(=O)Nc1ccc(-c2cncc(C#N)c2)nc1Oc1c(C)cc(C(F)(F)F)nc1C1CC1 [Compound I-152]
< 4.60	Cc1nc(C(F)(F)F)cc(C2CC2)c1Oc1nc(-c2cncc(C#N)c2)ccc1NS(C)(=O)=O [Compound I-155]
4.60 to 5.00	Cc1nc(C)c(Oc2nc(-c3cncc(C#N)c3)ccc2N(C)S(C)(=O)=O)c(C2CC2)n1 [Compound I-157]
> 6.00	Cc1cc(C(F)(F)F)nc(C2CC2)c1Oc1nc(-c2cncc(Cl)c2)ccc1NS(C)(=O)=O [Compound I-158]
> 6.00	Cc1nc(N2CC(C#N)C2)nc(C)c1Oc1nc(-c2cncc(C#N)c2)ccc1NS(C)(=O)=O [Compound I-159]
< 4.60	Cc1nc(N2CC3(COC3)C2)nc(C)c1Oc1nc(-c2cncc(C#N)c2)ccc1NS(C)(=O)=O [Compound I-160]
< 4.60	Cc1cc(C2CC2)nc(C2CC2)c1Oc1nc(-c2cncc(C#N)c2)ccc1NS(C)(=O)=O [Compound I-161]
< 4.60	Cc1nc(C2CC2)cc(C2CC2)c1Oc1nc(-c2cncc(C#N)c2)ccc1NS(C)(=O)=O [Compound I-162]
> 6.00	Cc1cc(C(F)(F)F)nc(C2CC2)c1Oc1nc(-c2cncc(C#N)c2)ccc1NS(C)(=O)=O [Compound I-163]
5.00 to 6.00	Cc1nc(C)c(Oc2nc(-c3cncc(Cl)c3)ccc2NS(C)(=O)=O)c(C2CC2)n1 [Compound I-164]
5.00 to 6.00	Cc1cc(C(F)F)nc(C2CC2)c1Oc1nc(-c2cncc(C#N)c2)ccc1S(=O)(=O)NC1CC1 [Compound I-288]
5.00 to 6.00	CNS(=O)(=O)c1ccc(-c2cncc(C#N)c2)nc1Oc1c(C)cc(C(F)F)nc1C1CC1 [Compound I-289]
